From patent US7511029B2, “Pesticidal diazene oxide carboxylates” (Chemtura Corporation, priority 2007, dated 2009)

How the values were obtained:
Tetranychus urticae Koch [1] = assay: Mite adulticide (MI) test; format: in vivo; conditions: adult mites on cowpea leaves sprayed to run off with 1000 ppm solution; mites transferred one day after treatment, examined five days later
Procedure: (§1) The remaining examples relate to the pesticidal use of compounds of this invention. In all these examples a stock solution for the compounds was prepared at 3000 ppm by dissolving 0.3 grams of the compound to be tested in 10 mL of acetone and adding 90 mL of distilled water plus four drops of ethoxylated sorbitan monolaurate, or a similar suitable wetting agent. For each example that follows, this stock solution was used and the specified dilutions made. All the tests discussed below, which involved treatment with compounds of this invention, were always repeated with controls, in which the active compound was not provided, to permit a comparison upon which the percent control was calculated. One day before treatment, a “figure 8” configuration of tree tanglefoot was applied to each of two cowpea primary leaves, one from each of two plants in a pot. In each Figure, the circle nearer the stem was designated for the mite ovicide/larvicide test and the circle further from the stem was designated for the mite adulticide test. Groups of adult mites (Tetranychus urticae Koch) were transferred into ovicide circles one day before treatment and the females were allowed to deposit eggs until one hour before treatment when they were removed. Plants were sprayed to run off with a 1000 ppm solution diluted from the 3000 ppm stock solution. […]

Tetranychus urticae Koch [2] = assay: Mite ovicide/larvicide (MIOVL) test; format: in vivo; conditions: eggs/immature mites on cowpea leaves sprayed with 1000 ppm solution; examined nine days following treatment; effect larvicidal (L)
Procedure: as §1

melting point: 102 to 106 °C
SMILES: COc1ccc(-c2ccccc2)cc1[N+]([O-])=NC(=O)OC(C)C [Compound 1, 1-Methylethyl 2-(4-methoxy-[1,1′-biphenyl]-3-yl)diazenecarboxylate 2-oxide]
MI percent control (Tetranychus urticae Koch [1]): 100 % Control | MIOVL (L) percent control (Tetranychus urticae Koch [2]): 100 % Control
